Experimental findings from patent US20130331353A1, “CELL-PERMEABLE VARIANTS OF TREHALOSE AND METHODS FOR THE PROTECTION OF LIVING CELLS” (UNION COLLEGE, priority 2012, published 2013) are described below.

The test system of this assay is Jurkat cells. As to the kind of experiment: Survival of Jurkat cells after cryopreservation (Trypan blue staining, automated cell counter). It is filed as cell-based, human. To be noted: Jurkat cells incubated 24 hours (50-200 μM Compound 2, with or without 200 mM Tre), slowly frozen at −80° C., thawed quickly; FIG. 2. The procedure:
Fully acetylated Tre (Compound 2, FIG. 1) has been synthesized, and incubated with Jurkat cells, a human T-cell line.
In accordance with a method of the present invention, mammalian cells are incubated with a solution containing cell-permeable variants of Tre. Preferably, the incubation time is at least 24 hours, more preferably, 24 to 96 hours, and most preferably about 48 hours. The cells are then frozen, preferably to about −80° C. or colder and thawed. Suitable freezing techniques include freezing the cells slowly, using for example a cryo 1° C. freezing container (“Mr. Frosty”), and freezing the cells quickly, for example, by plunging them into liquid nitrogen. Preferably, the frozen cells are thawed quickly, but they may also be thawed slowly. The % cell survival is measured, preferably using Trypan blue staining and an automated cell counter. […]
Jurkat cells were incubated for 24 hours with each of the following solutions: 0 mM Tre, 200 mM Tre, 50 μM Compound 2, 100 μM Compound 2, 200 μM Compound 2, 50 μM Compound 2+200 mM Tre, 100 μM Compound 2+200 mM Tre, and 200 μM Compound 2+200 mM Tre. The cells were then slowly frozen at −80° C. using a cryo 1° C. freezing container (“Mr. Frosty”) and thawed quickly. % cell survival was measured using Trypan blue staining and automated cell counter.

Regarding `CC(=O)OCC1OC(OC2OC(COC(C)=O)C(OC(C)=O)C(OC(C)=O)C2OC(C)=O)C(OC(C)=O)C(OC(C)=O)C1OC(C)=O` (stereo not shown) [Compound 2, fully acetylated trehalose], the “survival after freezing and thawing” value is recorded as “improved survival”.
